Like-named read-outs stand apart in the source and are kept apart here.
Assays:
human RORγ = target: T1, human RORγ (Homo sapiens, UniProt P51449); test: In vitro assay of inhibitory effect against RORγ transcriptional activity (GAL4-hRORγ LBD luciferase reporter gene assay in CHO cells); type: cell-based; details: for hRORγ luciferase activity, %-of-control: vehicle-control 0.2% DMSO alone = 100%
T1 construct: human RORγ, from Ser253 to Lys518; expressed in transfected cells; host or cells: CHO cells (Chinese hamster ovary), transient co-transfection with pG5-Luc
T1 sequence (P51449 253-518): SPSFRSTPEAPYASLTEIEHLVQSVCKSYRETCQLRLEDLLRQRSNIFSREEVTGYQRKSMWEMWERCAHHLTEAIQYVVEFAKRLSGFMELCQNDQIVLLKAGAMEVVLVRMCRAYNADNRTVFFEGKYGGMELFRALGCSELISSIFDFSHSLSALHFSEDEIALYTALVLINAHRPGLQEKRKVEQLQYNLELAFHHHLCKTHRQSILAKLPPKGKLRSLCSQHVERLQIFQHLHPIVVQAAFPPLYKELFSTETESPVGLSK
Method: (§1) In Vitro Assay of Inhibitory Effect Against RORγ Transcriptional Activity
(§2) Inhibitory effect of a test article on transcriptional activity of RORγ was measured by means of the following reporter gene assay.
(§3) cDNA encoding human and mouse RORγ ligand binding domain (LBD) were obtained based on the sequences of human RORγ (Genebank registered number NM_005060.3) and mouse RORγ (Genebank registered number NM_011281.2) (LBD sequence: human RORγ, from Ser253 to Lys518; mouse RORγ, from Ile251 to Lys516).
(§4) The LBD cDNA of human or mouse RORγ was inserted into pFA-CMV vector (Strategene), which expresses GAL4-DNA binding domain fusion protein. The resulting plasmids are hereinafter referred to as GAL4-hRORγ plasmid and GAL4-mRORγ plasmid, respectively.
(§5) GAL4-hRORγ plasmid or GAL4-mRORγ plasmid was transiently co-transfected into Chinese hamster ovary cells (CHO cells) with pG5-Luc (Promega), a reporter plasmid expressing firefly luciferase depending on GAL4.
(§6) TransIT (Registered trademark) CHO transfection reagent (Mirus) was used to co-transfect GAL4-hRORγ plasmid or GAL4-mRORγ plasmid into CHO cells with pG5-Luc plasmid. One day before the assay, CHO cells were suspended in HAM F-12 Nutrient medium containing 10 v/v % fetal bovine serum and seeded at 6×10^6 cells per 175 cm^2 cell culture flask. Fifty four micro litters of TransIT (Registered trademark) CHO reagent was added into a 15 ml tube containing 1.16 mL of HAM F-12 Nutrient medium without fetal bovine serum, and mixed and incubated at room temperature for 10 min. Thirty six micro litters of plasmid solution containing the GAL4-hRORγ plasmid (400 ng), pG5-Luc plasmid (9000 ng) and pcDNA3 plasmid (8600 ng) were added into the tube and mixed gently. In case of mouse assay, a plasmid solution containing the GAL4-mRORγ plasmid (250 ng), pG5-Luc plasmid (9000 ng) and pcDNA3 plasmid (8750 ng) was added, instead. The mixture was incubated at room temperature for 10 min. Nine micro litters of CHO Mojo Reagent were then added into each tube and mixed gently. The mixture was incubated at room temperature for 10 min. The resultant transfection reagent was applied to the cell culture. After incubation at 37° C., 5% CO2 for 4 hours, the plasmid-transfected CHO cells were harvested with a trypsin treatment. The collected cells were resuspended in HAM F-12 Nutrient medium supplemented with 10 v/v % fetal bovine serum and plated into a 384-well-white plate at 8,000 cells/50 μL/well. The plate was incubated at room temperature for 1 hour and then further incubated at 37° C., 5% CO2 for 3 hours. The test articles were dissolved in dimethylsulfoxide (DMSO) to obtain a concentration of 10 mM. The resulting solution was diluted with a medium just before use and added to the cells in the plate to prepare 8 different concentrations of the test article. The final concentration of DMSO was 0.2 v/v %. After the addition of the test articles, the cells were incubated at 37° C., 5% CO2 for 2 days.
(§7) RORγ transcriptional activity was detected as the intracellular luciferase activity using SteadyLite HTS Reporter Gene Assay System (Perkin Elmer). StedyLite Reagent was diluted five-fold into a solution containing Extension reagent (10 mM Tricine, 0.2% w/v BSA, 0.02% v/v Tween-20) to obtain the luciferase substrate solution. After the measurement of the cell viability using Resazurin, the culture media in the plate were removed, and then the luciferase substrate solution was added into each well. After the incubation at room temperature for 10 minutes, luminescence of each well was measured by a microplate reader. The luciferase activity derived from the luminescence count in the vehicle-control well treated with 0.2% DMSO alone was defined as 100%, and the luciferase activity in the test article was calculated as a percentage (%-of-control) based on the value of the vehicle-control. EC50 value of test article was calculated by curve fitting with GraphPad Prism. […]

mouse RORγ = target: T2, mouse RORγ (Mus musculus, UniProt P51450); test: In vitro assay of inhibitory effect against RORγ transcriptional activity (GAL4-mRORγ LBD luciferase reporter gene assay in CHO cells); type: cell-based; details: for mRORγ luciferase activity, %-of-control: value in parentheses beside the EC50 bound, vehicle-control 0.2% DMSO alone = 100%
T2 construct: mouse RORγ, from Ile251 to Lys516; expressed in transfected cells; host or cells: CHO cells (Chinese hamster ovary), transient co-transfection with pG5-Luc
T2 sequence (P51450 251-516): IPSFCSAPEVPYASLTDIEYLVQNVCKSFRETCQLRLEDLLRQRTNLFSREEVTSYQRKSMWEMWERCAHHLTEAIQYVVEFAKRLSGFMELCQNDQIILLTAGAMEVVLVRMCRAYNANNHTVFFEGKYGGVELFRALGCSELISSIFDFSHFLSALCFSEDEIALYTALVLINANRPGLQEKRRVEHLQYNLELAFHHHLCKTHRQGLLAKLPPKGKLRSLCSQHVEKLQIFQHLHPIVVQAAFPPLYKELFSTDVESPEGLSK
Method: as §1, §2, §3, §4, §5, §6, §7

[1] = GAL4-hRORγ LBD / pG5-Luc in CHO cells, 2 days incubation
[2] = GAL4-mRORγ LBD / pG5-Luc in CHO cells, 2 days incubation
[3] = GAL4-hRORγ LBD luciferase reporter, CHO cells, read-out: LUC EC50 hRORγ
[4] = value in parentheses beside the EC50 bound
[5] = GAL4-mRORγ LBD luciferase reporter, CHO cells, read-out: LUC EC50 mRORγ

CC(C)C1=CN(CCC(C)C(=O)O)C(=O)NC1(C)c1ccc(OCC(C)(C)C)c(Cl)c1 (mixture of isomers) [Example 21]
EC50 (human RORγ; [1]): 19 nM
EC50 (mouse RORγ; [2]): 24 nM

CC(C)C[S+]([O-])c1ccc([C@]2(C)NC(=O)N(CCC(=O)O)C=C2C(C)C)cc1Cl (mixture of isomers) [Example 215]
EC50 (human RORγ; [3]): > 20000 nM
hRORγ luciferase activity, %-of-control (human RORγ; [4]): (77%)
EC50 (mouse RORγ; [5]): > 20000 nM
mRORγ luciferase activity, %-of-control (mouse RORγ): (70%)

CC(C)CC[S+]([O-])c1ccc([C@]2(C)NC(=O)N(CCC(=O)O)C=C2C(C)C)cc1Cl (mixture of isomers) [Example 217]
EC50 (human RORγ; [3]): > 20000 nM
hRORγ luciferase activity, %-of-control (human RORγ; [4]): (90%)
EC50 (mouse RORγ; [5]): > 20000 nM
mRORγ luciferase activity, %-of-control (mouse RORγ): (77%)

CC(C)C1=CN(CCC(=O)O)C(=O)N[C@@]1(C)c1ccc([S+]([O-])C2CCCC2)c(Cl)c1 (mixture of isomers) [Example 223]
EC50 (human RORγ; [3]): > 20000 nM
hRORγ luciferase activity, %-of-control (human RORγ; [4]): (78%)
EC50 (mouse RORγ; [5]): > 20000 nM
mRORγ luciferase activity, %-of-control (mouse RORγ): (70%)

CC(C)(C)COc1ccc(C2NC(=O)N(CCCC(=O)O)C=C2C(C)(C)C)cc1Cl (racemic) [Example 1]
EC50 (human RORγ; [1]): 88 nM
EC50 (mouse RORγ; [2]): 60 nM

CC(C)(C)COc1ccc(C2NC(=O)NC=C2C(C)(C)C(=O)O)cc1Cl (racemic) [Example 2]
EC50 (human RORγ; [1]): > 20000 nM
hRORγ luciferase activity, %-of-control (human RORγ; value in parentheses beside the > EC50 bound): (55%)
EC50 (mouse RORγ; [2]): 13100 nM

CC(C)(C)C1=CN(CCCC(=O)O)C(=O)NC1c1ccc(OCCC2CCCCC2)c(Cl)c1 (racemic) [Example 3]
EC50 (human RORγ; [1]): 182 nM
EC50 (mouse RORγ; [2]): 61 nM

CC(C)(C)COc1ccc(C2NC(=O)NC=C2C(C)(C)CC(=O)O)cc1Cl (racemic) [Example 4]
EC50 (human RORγ; [1]): 1440 nM
EC50 (mouse RORγ; [2]): 675 nM

CC(C)(C)COc1ccc(C2NC(=O)NC=C2C(C)(C)CCC(=O)O)cc1Cl (racemic) [Example 7]
EC50 (human RORγ; [1]): 152 nM
EC50 (mouse RORγ; [2]): 110 nM

CC(C)(C)CCc1ccc(C2NC(=O)N(CCCC(=O)O)C=C2C(C)(C)C)cc1Cl (racemic) [Example 8]
EC50 (human RORγ; [1]): 21 nM
EC50 (mouse RORγ; [2]): 22 nM

CC(C)C1=CN(CCCC(=O)O)C(=O)NC1(C)c1ccc(OCC(C)(C)C)c(Cl)c1 (racemic) [Example 9]
EC50 (human RORγ; [1]): 55 nM
EC50 (mouse RORγ; [2]): 32 nM

CC(C)C1=CN([C@H]2C[C@@H](C(=O)O)C2)C(=O)NC1(C)c1ccc(OCC(C)(C)C)c(Cl)c1 (mixture of isomers) [Example 16]
EC50 (human RORγ; [1]): 362 nM
EC50 (mouse RORγ; [2]): 137 nM

CC(C)C1=CN([C@H]2C[C@H](C(=O)O)C2)C(=O)NC1(C)c1ccc(OCC(C)(C)C)c(Cl)c1 (mixture of isomers) [Example 17]
EC50 (human RORγ; [1]): 206 nM
EC50 (mouse RORγ; [2]): 153 nM

CC(C)C1=CN(CCCCC(=O)O)C(=O)NC1(C)c1ccc(OCC(C)(C)C)c(Cl)c1 (racemic) [Example 18]
EC50 (human RORγ; [1]): 51 nM
EC50 (mouse RORγ; [2]): 28 nM

CC(C)(C)CCc1ccc(C2(C)NC(=O)N(CCCC(=O)O)C=C2C(C)(C)C)cc1Cl (racemic) [Example 22]
EC50 (human RORγ; [1]): 17 nM
EC50 (mouse RORγ; [2]): 29 nM

CC(C)(C)CCc1ccc(C2(C)NC(=O)N(CCCC(=O)O)C=C2CC(C)(C)C)cc1Cl (racemic) [Example 23]
EC50 (human RORγ; [1]): 42 nM
EC50 (mouse RORγ; [2]): 41 nM

CC(C)C1=CN(CCCC(=O)O)C(=O)NC1(C)c1ccc(CCC(C)(C)C)cc1 (racemic) [Example 26]
EC50 (human RORγ; [1]): 364 nM
EC50 (mouse RORγ; [2]): 217 nM

CC(C)CCc1ccc(C2(C)NC(=O)N(CCCC(=O)O)C=C2C(C)C)cc1Cl (racemic) [Example 27]
EC50 (human RORγ; [1]): 25 nM
EC50 (mouse RORγ; [2]): 16 nM

CCCCc1ccc(C2(C)NC(=O)N(CCCC(=O)O)C=C2C(C)C)cc1Cl (racemic) [Example 28]
EC50 (human RORγ; [1]): 187 nM
EC50 (mouse RORγ; [2]): 82 nM

CC(C)C1=CN([C@H]2CC[C@H](C(=O)O)CC2)C(=O)NC1(C)c1ccc(CCC(C)(C)C)c(Cl)c1 (mixture of isomers) [Example 29]
EC50 (human RORγ; [1]): 36 nM
EC50 (mouse RORγ; [2]): 49 nM

CC(C)C1=CN([C@H]2CC[C@@H](C(=O)O)CC2)C(=O)NC1(C)c1ccc(CCC(C)(C)C)c(Cl)c1 (mixture of isomers) [Example 30]
EC50 (human RORγ; [1]): 60 nM
EC50 (mouse RORγ; [2]): 47 nM

CCCCCc1ccc(C2(C)NC(=O)N(CCCC(=O)O)C=C2C(C)C)cc1Cl (racemic) [Example 53]
EC50 (human RORγ; [1]): 36 nM
EC50 (mouse RORγ; [2]): 21 nM

CC(C)(C)COc1ccc(C2NC(=O)NC=C2C2CC(C(=O)O)C2)cc1Cl (racemic) [Example 62]
EC50 (human RORγ; [1]): 665 nM
EC50 (mouse RORγ; [2]): 520 nM

CCCCc1ccc(C2(C)NC(=O)N(CCCC(=O)O)C=C2C(C)C)cc1F (racemic) [Example 70]
EC50 (human RORγ; [1]): 251 nM
EC50 (mouse RORγ; [2]): 133 nM

CC(C)C1=CN(C[C@H]2C[C@H](C(=O)O)C2)C(=O)NC1(C)c1ccc(CCC(C)(C)C)c(Cl)c1 (mixture of isomers) [Example 80]
EC50 (human RORγ; [1]): 16 nM
EC50 (mouse RORγ; [2]): 17 nM

CC(C)(C)CCc1ccc(C2(C)NC(=O)N(CCCC(=O)O)C=C2C2CN(S(C)(=O)=O)C2)cc1Cl (racemic) [Example 81]
EC50 (human RORγ; [1]): 2580 nM
EC50 (mouse RORγ; [2]): 2490 nM

CCCCc1ccc(C2(C)NC(=O)N(CCCC(=O)O)C=C2C(C)C)cc1 (racemic) [Example 84]
EC50 (human RORγ; [1]): 746 nM
EC50 (mouse RORγ; [2]): 502 nM

CCCCc1ccc(C2(C)NC(=O)N(CCCC(=O)O)C=C2C(C)C)cc1OCc1ccccc1 (racemic) [Example 85]
EC50 (human RORγ; [1]): 545 nM
EC50 (mouse RORγ; [2]): 368 nM

CC1=C(C(C)C)C(C)(c2ccc(CCC(C)(C)C)c(Cl)c2)NC(=O)N1CCCC(=O)O (racemic) [Example 90]
EC50 (human RORγ; [1]): 15 nM
EC50 (mouse RORγ; [2]): 18 nM

Source: US10196363B2, “Dihydropyrimidin-2-one compounds and medical use thereof” (JAPAN TOBACCO INC., priority 2014, dated 2019)
